Experiment [1] concerns skinned cardiac fiber (left ventricular papillary muscle). Description: Calcium sensitizing effect in skinned cardiac fiber. The format is cell-based, guinea-pig. Particulars: pCa 5.6; concentration not given. An excerpt:
Calcium Sensitizing Effect in Skinned Cardiac Fiber
Left ventricular papillary muscle of the guinea-pig was dissected and rinsed in ice-cold Tyrode solution. Thereafter the papillary muscle was immersed into a solution containing (mM): Potassium acetate 74.7, EGTA 10, MgSO4 5.4, ATP-Na2 4, DTE 1, MOPS 20, pH 7.0 (by 1 M KOH). Subsequently, the papillary muscle was sonicated at 10 Watt for 60 sec in this ice-cold solution. The distance between ultrasound probe and the papillary muscle was 10 mm. The fibers (<200 μm in diameter) were dissected from surface of sonicated papillary muscles. Moreover, the sonicated and dissected fibers were kept for 30 min in a “skinning” solution (ice-cold) containing saponin (250 μg/ml) in addition to the other constituents. Continuous magnetic stirring was used during this treatment.
The fibers which were further dissected (<100 μm in diameter) were then mounted horizontally with a glue (cellulose acetate in acetone) between a steel-rod extension of isometric force transducer (AME-801 strain gauge, Horten Electronics, Norway) and a glass rod attached to a micro-manipulator. The force transducer was connected to an amplifier. The fibers were kept in the “relaxing” solution containing (mM): imidazole 30, ATP-Na2 10, NaN3 5, EGTA 5, MgCl2 12.5, and 350 U creatinkinase. The temperature of the solution was 22° C. and the pH was set to 6.7 by 1 M KOH. […]

The subject of experiment [2] is guinea-pig papillary muscle. Description: Positive inotropic effect in paced cardiac muscle. The class given is cell-based. Particulars: Cavia porcellus; right ventricular papillary muscle paced at 1 Hz, 37° C. As for the experimental part: Positive Inotropic Effect in Paced Cardiac Muscle
Four weeks old guinea-pigs weighing about 350 g were used. In the experiments the right ventricular papillary muscle of the heart was mounted for measurement of isometric tension in organ bath containing modified Tyrode solution (37° C.) bubbled with 95% O2, 5% CO2. The composition of the modified Tyrode solution was (mM): NaCl 135; MgCl2.6H2O 1; KCl 5; CaCl2.2H2O 2; NaHCO3 15; Na2HPO4.2H2O 1; glucose 10; pH 7.3-7.4. The volume of the open horizontal chamber was 1 ml and flow rate of the superfusion solution running through the chamber was 5 ml/min. Papillary muscle (<1 mm in diameter) was stretched horizontally between force-displacement transducer (FT 0.3 and a needle fixed to the bottom of the chamber. An initial stretching tension of 300 mg was applied to the muscle which was electrically stimulated (Stimulator model SEC 48 F, Grass Instruments) via platinum field electrodes at 1 Hz with rectangular pulses (duration 4 ms). The stimulation occurred at twice threshold voltage in order to achieve simultaneous activation of all myocytes in the […]. A force-displacement transducer was connected to a polygraph D.C. driver amplifier (model 7 DA, Grass Instruments) and a programmable scanner (model SI 5010, Tetronix). […]

2 compounds from patent publication USRE38102E1, “Use of a pyridazinone derivative” (Orion Corporation, priority 1998, dated 2003) can be followed below.

A word on the EC50: it is the concentration giving half of the maximal effect. Regarding `Cc1[nH]c(=O)c(C#N)cc1-c1ccncc1` [Milrinone, milrinone], in experiment [1], the “Calcium sensitizing effect in skinned fiber: Change in force % of control” value was “ineffective”. The compound also gave a 50% effective concentration (EC50) in experiment [2] of 2 µM.
With `CC(=O)Nc1ccc(C2=NNC(=O)C[C@H]2C)cc1` [Compound A, (R)-N-[4-(1,4,5,6-tetrahydro-4-methyl-6-oxo-3-pyridazinyl)phenyl]acetamide], it took 0.1 µM to reach a half-maximal effect in experiment [2] (EC50).
